Assay results taken from patent US12391737B2, “Soluble NPY2 receptor agonists” (Boehringer Ingelheim International GmbH, priority 2020, dated 2025).

Assays:
[1] = target: T1, Human Neuropeptide Y2 Receptor (Homo sapiens, UniProt P49146); experiment: Radioligand binding competition assay (RLB); details: Table 3, 125I-PYY(1-36) competition; read-out: Ki
T1 construct: purchased CHEMICON HTS066M
T1 sequence (P49146 1-381): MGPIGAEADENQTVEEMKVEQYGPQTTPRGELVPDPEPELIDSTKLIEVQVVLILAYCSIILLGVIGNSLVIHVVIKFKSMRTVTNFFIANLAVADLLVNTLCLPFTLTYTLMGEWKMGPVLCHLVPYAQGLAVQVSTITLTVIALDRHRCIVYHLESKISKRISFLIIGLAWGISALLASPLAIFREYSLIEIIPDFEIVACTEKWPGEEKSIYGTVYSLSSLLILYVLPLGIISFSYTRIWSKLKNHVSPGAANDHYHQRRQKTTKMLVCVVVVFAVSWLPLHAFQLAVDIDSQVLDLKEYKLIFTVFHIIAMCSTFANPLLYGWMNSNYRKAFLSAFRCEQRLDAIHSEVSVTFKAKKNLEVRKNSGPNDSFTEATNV
Procedure, shortened: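 Displacement of radioligand is measured after 2 h at room temperature with receptor membranes in Mg2+/Ca2+ HEPES buffer, pH 7.4. Filter-bound radioactivity is counted and IC50 obtained from curve fitting.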

[2] = Solubility determination; details: for Sol6: pH 6; for Sol7: pH 7
Procedure, shortened: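 First, TFA-salt peptide was added to 0.1 M sodium diphosphate (pH 6.4 or 7.0) to 10 mg/ml and shaken 2 h at room temperature. Next, insoluble material was filtered off. Finally, filtrate and control, each 1 mg/ml in 50% acetonitrile, were compared by reversed-phase chromatography.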

Compound | Ki [1] | Sol6 [2] | Sol7 [2]
CC(C)CC(=O)N[C@@H](C)C(=O)N1CCC[C@H]1C(=O)N[C@@H](CCC(=O)O)C(=O)N[C@@H](CCCCNC(=O)CCCCCNC(=O)CC[C@H](NC(=O)CCCCCCCCCCCCCCCCC(=O)O)C(=O)O)C(=O)N1CCC[C@H]1C(=O)N[C@@H](CCC(=O)O)C(=O)N[C@@H](CCC(=O)O)C(=O)N[C@@H](CC(=O)O)C(=O)N[C@@H](C)C(=O)N[C@H](C(=O)N1CCC[C@H]1C(=O)N[C@@H](CCC(=O)O)C(=O)N[C@@H](CCC(=O)O)C(=O)N[C@@H](CC(C)C)C(=O)N[C@@H](CCC(N)=O)C(=O)N[C@@H](CCCNC(=N)N)C(=O)N[C@@H](CCC(N)=O)C(=O)N[C@@H](Cc1ccc(O)cc1)C(=O)N[C@H](C(=O)N[C@@H](CO)C(=O)N[C@@H](CC(C)C)C(=O)N[C@@H](CCCNC(=N)N)C(=O)N[C@@H](Cc1c[nH]cn1)C(=O)N[C@@H](Cc1ccc(O)cc1)C(=O)N[C@@H](Cc1ccc(O)cc1)C(=O)N[C@@H](CC(N)=O)C(=O)N[C@@H](Cc1c[nH]c2ccccc12)C(=O)N[C@@H](CC(C)C)C(=O)N[C@H](C(=O)N[C@@H](CCCNC(=N)N)C(=O)N[C@@H](CCC(N)=O)C(=O)N[C@@H](CCCNC(=N)N)C(=O)N[C@@H](Cc1ccc(O)cc1)C(N)=O)[C@@H](C)O)C(C)C)[C@@H](C)O [Compound 88, N{alpha-4}-(3-methylbutanoyl)-N{epsilon-7}-(6-[(4S)-4-carboxy-4-(17-carboxyheptadecanamido)butanamido]hexanoyl)-[4A,7K,9E,13T,18Q,20Q,22V,28Y,30W,31L]-hPYY(4-36)] | 16.3 nM | 8.7 mg/mL | 8.9 mg/mL
CC(C)CC(=O)N[C@@H](C)C(=O)N1CCC[C@H]1C(=O)N[C@@H](CCC(=O)O)C(=O)N[C@@H](CCCCNC(=O)CCCCCNC(=O)CC[C@H](NC(=O)CCCCCCCCCCCCCCCCC(=O)O)C(=O)O)C(=O)N1CCC[C@H]1C(=O)N[C@@H](CCC(=O)O)C(=O)N[C@@H](CCC(=O)O)C(=O)N[C@@H](CC(=O)O)C(=O)N[C@@H](C)C(=O)N[C@H](C(=O)N1CCC[C@H]1C(=O)N[C@@H](CCC(=O)O)C(=O)N[C@@H](CCC(=O)O)C(=O)N[C@@H](CC(C)C)C(=O)N[C@@H](CCC(N)=O)C(=O)N[C@@H](CCCNC(=N)N)C(=O)N[C@@H](Cc1ccc(O)cc1)C(=O)N[C@@H](Cc1ccc(O)cc1)C(=O)N[C@H](C(=O)N[C@H](C(=O)N[C@@H](CC(C)C)C(=O)N[C@@H](CCCNC(=N)N)C(=O)N[C@@H](Cc1c[nH]cn1)C(=O)N[C@@H](Cc1ccc(O)cc1)C(=O)N[C@@H](Cc1ccc(O)cc1)C(=O)N[C@@H](CC(N)=O)C(=O)N[C@@H](Cc1c[nH]c2ccccc12)C(=O)N[C@@H](CC(C)C)C(=O)N[C@H](C(=O)N[C@@H](CCCNC(=N)N)C(=O)N[C@@H](CCC(N)=O)C(=O)N[C@@H](CCCNC(=N)N)C(=O)N[C@@H](Cc1ccc(O)cc1)C(N)=O)[C@@H](C)O)C(C)C)C(C)C)[C@@H](C)O [Compound 90, N{alpha-4}-(3-methylbutanoyl)-N{epsilon-7}-(6-[(4S)-4-carboxy-4-(17-carboxyheptadecanamido)butanamido]hexanoyl)-[4A,7K,9E,13T,18Q,22V,23V,28Y,30W,31L]-hPYY(4-36)] | 8.71 nM | 9.6 mg/mL | 10.0 mg/mL
